Source: patent US4157396A, “Hydroxamic acid derivatives and medicaments for treatment of urolithiasis and pyelonephrosis comprising such derivatives” (Eisai Co., Ltd., priority 1976, dated 1979)
Read-outs that look alike come from different tables or passages of the source.

How the values were obtained:
[1] = target: T1, Urease collected and purified from sword beans (Canavalia gladiata) (Canavalia gladiata, UniProt A0AAN9R4W0); assay: Determination of the urease inhibitory action; format: biochemical; conditions: read-out: 50% inhibitory concentration (M) of urease <I50>
T1 construct: single-chain plant urease, homohexamer by analogy with jack bean urease
Procedure: (i) Determination of the urease inhibitory action
Urease was collected and purified from sword beans (Canavalia gladiata) and mol concentrations of the examination compounds for inhibiting 50% of the activity of the urease were measured by the method of Kobashi et al [Refer to Biochim. Biophys. acta 227, 429-441 (1971)].

[2] = Determination of the transfer rate into the urine and calculation of the index; format: in vivo, male rats of SD strain; conditions: rat, male SD rats, 100 mg/Kg oral, measured as urease inhibitory action in excreted urine
Procedure: (ii) Determination of the transfer rate into the urine
Transfer rates into the urine of the examination compounds were determined according to the method of Kobashi et al [Refer to Biochemistry (Japan) vol. 44, No. 5, pp. 187-204 (1972) and Yakugaku Zasshi vol. 12, pp. 1564-1572 (1973)] by using the male rats of SD strain having the body weight of about 280 g, administering orally each 100 mg/Kg of the compounds, and measuring the urease inhibitory action in the excreted urine within a specified period of time.
(iii) Calculation of the index
The index was calculated from the resulting values of the above examinations (i) and (ii) according to the following equation: [formula] wherein n is chosen appropriately depending on the value of I50.
The value of the index is referred to as a standard of the urease inhibitory power of the administered examination compound in the urine.
It is seen that the larger the value of the index is, the more effectively the examination compounds transfer into the urine with a form having the urease inhibitory action. Results of the determination

Proteus mirabilis OM-1 [3] = assay: Arrestment action to alkalization of the urine; format: cell-based; conditions: normal human urine inoculated with Proteus mirabilis OM-1, 37° C.
Procedure: (§1) Solutions to be examined were prepared by collecting each 18 ml of fresh urine from a normal human, and adding the respective examination compounds to each of the urine to make their concentration of 10^-3 M in one group, and of 2×10^-4 in the other group. On the other hand, same solutions containing no examination compounds were prepared as blanks.
Proteus mirabilis OM-1, a urease-producing bacterium, was inoculated in said solutions, so that the number of the bacteria may amount to 10^6 cell/ml, and cultured at 37° C. […] The arrestment ratio of calculus formation was calculated from said values.

Proteus mirabilis OM-1 [4] = assay: Arrestment action to the calculus formation in the urine; format: cell-based; conditions: OM1, human urine with Proteus mirabilis OM-1, 24 hours, read-out: Arrest ratio to calculus formation (%), 24 hours
Procedure: as §1
Proteus mirabilis OM-1, a urease-producing bacterium, was inoculated in said solutions, so that the number of the bacteria may amount to 10^6 cell/ml, and cultured at 37° C. After […] and 24 hours of the culture time, pH values of the solutions and amounts by weight of the formed and deposited calculus were measured. The arrestment ratio of calculus formation was calculated from said values.

[5] = Acute toxicity (LD50), oral; conditions: rat, in vivo, po
Description: The examination was achieved by orally administering the examination compounds into male rats of SD strain weighing about 230 g, respectively.

[6] = Acute toxicity: observation of the general conditions; format: in vivo
Description: (§2) Eight week-old rats of SD strain (body weight: about 230 g for male and about 160 g for female) were used as the subject animals. The examination compounds were forcedly and orally administered in the following dosages, wherein 14 rats (7 male rats and 7 female rats, respectively) were used.

[7] = Acute toxicity: remarks on the dissection; format: in vivo, rats of SD strain
Procedure: as §2
The dissection was performed, for the death examples, at the time of death and, for the survivor example, after killing by discharging the blood when the observation of the general conditions was finished. The organs in the thoracic cavity and the abdominal cavity were closely observed with a macroscopic manner.

[8] = Examination of urine (Labstix test paper, amount, pH); format: in vivo, male SD strain rats; set-up: key to Protein in urine, hours 0-6 / Protein in urine, hours 6-24 / Glucose in urine, hours 0-6 / Glucose in urine, hours 6-24 / Ketone substances in urine, hours 0-6 / Ketone substances in urine, hours 6-24 / Occult blood in urine, hours 0-6 / Occult blood in urine, hours 6-24: (-); (±); (+); (++); (+++); conditions: 100 mg/Kg oral, male SD rats
Procedure: To 5 male SD strain rats having the body weight of about 280 g in the respective groups, the examination compounds were forcedly and orally administered in a ratio of 100 mg/Kg in each time.
Natural urinations were respectively recovered 6 hours and 6-24 hours from the administration. As for control group wherein no examination compound is administered, natural urination was similarly recovered. Amount and pH value of the recovered urine were measured. Further, qualitative reaction concerning the respective items of protein, glucose, ketone substances, and occult blood in the urine was carried out by using Labstix text paper (manufactured and sold by Ames Company). Judgement was ranked as five levels, that is, (-), (±), (+), (++) and (+++).

Proteus mirabilis OM-1 [9] = assay: Arrestment action to the calculus formation in the urine; format: cell-based; conditions: OM1, human urine with Proteus mirabilis OM-1, 8 hours, read-out: Arrest ratio to calculus formation (%), 8 hours
[10] = single forced oral dose, SD rats, 7 male and 7 female per dose

T1 sequence (A0AAN9R4W0 entry or part of it): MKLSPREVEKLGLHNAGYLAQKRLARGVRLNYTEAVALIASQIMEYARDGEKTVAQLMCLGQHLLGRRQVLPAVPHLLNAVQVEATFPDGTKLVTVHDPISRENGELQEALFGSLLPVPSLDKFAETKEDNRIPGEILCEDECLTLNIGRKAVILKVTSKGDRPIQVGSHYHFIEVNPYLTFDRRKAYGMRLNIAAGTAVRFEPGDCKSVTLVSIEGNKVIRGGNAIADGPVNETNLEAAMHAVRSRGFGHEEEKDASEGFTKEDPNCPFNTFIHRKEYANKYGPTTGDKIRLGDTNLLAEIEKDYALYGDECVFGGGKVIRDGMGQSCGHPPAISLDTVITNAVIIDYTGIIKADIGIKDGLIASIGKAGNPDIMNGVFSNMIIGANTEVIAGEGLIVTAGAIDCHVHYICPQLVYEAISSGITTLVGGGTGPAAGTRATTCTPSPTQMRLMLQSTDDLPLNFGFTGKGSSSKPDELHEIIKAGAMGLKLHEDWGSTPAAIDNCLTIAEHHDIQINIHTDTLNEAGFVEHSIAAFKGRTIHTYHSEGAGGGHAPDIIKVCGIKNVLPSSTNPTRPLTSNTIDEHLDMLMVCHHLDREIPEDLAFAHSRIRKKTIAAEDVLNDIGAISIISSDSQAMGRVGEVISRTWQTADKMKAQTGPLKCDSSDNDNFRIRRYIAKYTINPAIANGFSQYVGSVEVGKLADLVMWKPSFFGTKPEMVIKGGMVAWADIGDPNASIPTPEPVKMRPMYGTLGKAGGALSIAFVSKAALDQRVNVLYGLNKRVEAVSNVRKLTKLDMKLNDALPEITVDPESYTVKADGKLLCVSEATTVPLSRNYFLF

COc1ccc(C(=O)NCC(=O)NO)cc1 [Compound A, 2-(para-methoxy-benzamide)-acetohydroxamic acid]
IC50 [1]: 1.7e-06 M
dose excreted at 6 h ([2]; 0-6 hours): 12%
dose excreted at 24 h ([2]; 6-24 hours): 0.83%
pH value, time 8 hours (Proteus mirabilis OM-1 [3]; 2×10^-4 M): 6.56±0.02
pH value, time 24 hours (Proteus mirabilis OM-1 [3]; 2×10^-4 M): 8.38±0.02
pH value, time 0 hour (Proteus mirabilis OM-1 [3]; 10^-3 M, 0 hour): 6.40±0.00
pH value, time 8 hours (Proteus mirabilis OM-1 [3]; 10^-3 M): 5.40±0.003
pH value, time 24 hours (Proteus mirabilis OM-1 [3]; 10^-3 M): 5.58±0.05
inhibition at 200 µM (Proteus mirabilis OM-1 [4]; 2×10^-4 M): 32 ± 3.4%
inhibition at 1000 µM (Proteus mirabilis OM-1 [4]; 10^-3 M): 76.6 ± 6%
LD50 [5]: > 5000 mg/kg
Number of death examples, Female ([6]; rat, in vivo): 0/7
Number of death examples, Male ([6]; rat, in vivo): 1/7
Behaviour [6, 10]: No change
Symptom [6, 10]: No change
Baited amount ([6]; single forced oral dose, SD rats, all administration groups): No change
Remarks on the dissection, death examples ([7]; macroscopic observation at the time of death): Erosion was observed
Remarks on the dissection, survivor example ([7]; rat, in vivo): No abnormality
Ketone substances in urine, hours 0-6 ([8]; Labstix, 0-6 hours): -
Occult blood in urine, hours 0-6 ([8]; Labstix, 0-6 hours): -
Protein in urine, hours 0-6 ([8]; Labstix, 0-6 hours): +
Glucose in urine, hours 6-24 ([8]; Labstix, 6-24 hours): -
Ketone substances in urine, hours 6-24 ([8]; Labstix, 6-24 hours): -
Occult blood in urine, hours 6-24 ([8]; Labstix, 6-24 hours): -
Protein in urine, hours 6-24 ([8]; Labstix, 6-24 hours): ±
Glucose in urine, hours 0-6 ([8]; Labstix, first collection period): -
Amount and pH value of the urine ([8]; compared with the group given no examination compound): there was not found the difference
inhibition at 200 µM (Proteus mirabilis OM-1 [9]; 2×10^-4 M): 99 ± 1%
inhibition at 1000 µM (Proteus mirabilis OM-1 [9]; 10^-3 M): 96.2 ± 0.4%
